Measured values published in paper PMC6410080 (Viruses, 2019).
Counter-ions that a name gives are not always drawn.

Tested on: RRV
Test: microbe, parasite or virus in culture
Format: cell-based
Conditions: Ross River virus, HeLa Kyoto, read-out: IC50 RRV

Compound | IC50 [µM]
CCN(CC)Cc1cc(Nc2ccnc3cc(Cl)ccc23)ccc1O [Amodiaquine, Amodiaquine dihydrochloride dihydrate] | 6.2
CC(C)COCC(CN(Cc1ccccc1)c1ccccc1)N1CCCC1 (stereo not shown) [Bepridil, Bepridil hydrochloride] | 4.6
CNc1ccc2oc(C[C@H]3O[C@@]4(CC[C@H]3C)O[C@H]([C@H](C)C(=O)c3ccc[nH]3)[C@H](C)C[C@H]4C)nc2c1C(=O)O [Calcimycin] | 6.5
O=C1c2c(O)ccc(O)c2C(=O)c2c(NCCNCCO)ccc(NCCNCCO)c21 [Mitoxantrone, Mitoxantrone dihydrochloride] | 4.9
CC[C@@]1([C@@H]2O[C@@H]([C@H]3O[C@@](O)(CO)[C@H](C)C[C@@H]3C)C[C@@H]2C)CC[C@H]([C@]2(C)CC[C@]3(C[C@H](O)[C@@H](C)[C@@H]([C@@H](C)[C@@H](OC)[C@H](C)C(=O)O)O3)O2)O1 [Monensin, Monensin sodium salt] | 4.6
O=C(Nc1ccc([N+](=O)[O-])cc1Cl)c1cc(Cl)ccc1O [Niclosamide] | 0.82
C=C1C(=O)O[C@H]2[C@H]1CC/C(C)=C/CC[C@@]1(C)O[C@@H]21 [Parthenolide] | 7.7
